Here are results for 23 compounds from patent US8618289B2 (Ambit Biosciences Corporation, priority 2008, dated 2013).

For assay [1], the system named is MEK1 phosphorylation in the A375 human melanoma cell line. Nature of the assay: cells. Particulars: A-375, read-out: pMEK IC50.
Experimental: A375 cells (from American Type Culture Collection) were plated at 50,000 cells per well in DMEM (Mediatech) with 10% fetal bovine serum (Omega Scientific) into a 96 well plate and incubated overnight in a 37° C. incubator with 10% CO2. The cells were then washed with PBS and the medium replaced with 0.5% FBS for incubation overnight. […] The cells were incubated with compound or control for two hours at 37° C. The compound solution was aspirated off and the cells washed with cold PBS. […] The plate was centrifuged for 30 minutes to pellet out the cell debris. The cleared lysates were transferred to a 96-well Nunc plate and the ELISA protocol described by the manufacturer in Catalog #KHO0321 or KHO0291 was followed.
Assay [2] has as its system A375 cells. The assay is described as follows: cells. Conditions: Homo sapiens, A-375, read-out: A375 Viability EC50.
The target in assay [3] is T1, RAF kinases (Homo sapiens, UniProt P15056, V600E). The assay is described as follows: biochemical.
Experimental: (§1) Competition binding assays used herein were developed, validated and performed as described in Fabian et al., Nature Biotechnology 2005, 23, 329-336. […] The liganded beads were blocked with excess biotin and washed with blocking buffer (SeaBlock (Pierce), 1% BSA, 0.05% Tween 20, 1 mM DTT) to remove unbound ligand and to reduce non-specific binding. […] Test compounds were prepared as 100× stocks in DMSO and rapidly diluted into the aqueous environment. DMSO was added to control assays lacking a test compound. Primary screen interactions were performed in polypropylene 384-well plates in a final volume of 34 μt, while Kd determinations were performed in polystyrene 96-well plates in a final volume of 135 pt. […] The kinase concentration in the eluates was measured by quantitative PCR. Each kinase was tested individually against each compound. Kds were determined using eleven serial threefold dilutions. A selectivity score, which is a quantitative measure of selectivity of a compound against a panel of enzymes, may be calculated for a compound by dividing the number of enzymes for which a compound meets a set criteria, (for example, a binding constant of 100 nM or less), by the total number of enzymes tested. […] (Note, for those compounds tested in a larger kinase panel, as indicated by an asterisk (*) next to the S35 score, the divisor is 321 (i.e. the larger panel contains 321 distinct kinases, excluding mutant variants.)).
Assay [4] has as its target T1, RAF kinases. Particulars: read-out: BRAF V600E Kd; BRAF V600E.
Experimental: as §1
The target in assay [5] is RAF kinases (Homo sapiens, UniProt P04049). Nature of the assay: biochemical.
Experimental: as §1
Assay [6] has as its target RAF kinases (Homo sapiens, UniProt P15056). The assay is described as follows: biochemical.
Experimental: as §1

Where a name gives a salt, the structure may show the parent alone. Read-outs that look alike come from different tables or passages of the source.

T1 sequence (P15056 whole entry V600E): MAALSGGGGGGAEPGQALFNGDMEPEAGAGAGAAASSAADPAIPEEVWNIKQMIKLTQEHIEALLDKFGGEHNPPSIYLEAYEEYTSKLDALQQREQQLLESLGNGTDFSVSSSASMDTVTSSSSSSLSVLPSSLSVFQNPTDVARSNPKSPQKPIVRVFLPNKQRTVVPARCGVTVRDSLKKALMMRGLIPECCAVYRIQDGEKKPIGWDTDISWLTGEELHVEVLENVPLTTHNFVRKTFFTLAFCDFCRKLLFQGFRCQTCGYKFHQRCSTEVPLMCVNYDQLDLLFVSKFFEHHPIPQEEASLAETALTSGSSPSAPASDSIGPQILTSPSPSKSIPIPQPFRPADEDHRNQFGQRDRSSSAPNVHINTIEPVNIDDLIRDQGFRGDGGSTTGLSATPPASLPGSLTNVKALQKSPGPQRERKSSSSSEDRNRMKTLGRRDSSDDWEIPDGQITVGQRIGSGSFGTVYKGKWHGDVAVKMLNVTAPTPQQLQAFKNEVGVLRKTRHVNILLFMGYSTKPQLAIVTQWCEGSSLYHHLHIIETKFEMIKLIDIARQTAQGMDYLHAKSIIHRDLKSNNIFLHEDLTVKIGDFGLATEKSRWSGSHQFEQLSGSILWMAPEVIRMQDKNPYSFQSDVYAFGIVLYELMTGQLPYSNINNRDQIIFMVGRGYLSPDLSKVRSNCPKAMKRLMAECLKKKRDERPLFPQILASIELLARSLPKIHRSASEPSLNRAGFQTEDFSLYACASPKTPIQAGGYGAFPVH
Chain of RAF kinases (Homo sapiens, UniProt P04049) (P04049 whole entry): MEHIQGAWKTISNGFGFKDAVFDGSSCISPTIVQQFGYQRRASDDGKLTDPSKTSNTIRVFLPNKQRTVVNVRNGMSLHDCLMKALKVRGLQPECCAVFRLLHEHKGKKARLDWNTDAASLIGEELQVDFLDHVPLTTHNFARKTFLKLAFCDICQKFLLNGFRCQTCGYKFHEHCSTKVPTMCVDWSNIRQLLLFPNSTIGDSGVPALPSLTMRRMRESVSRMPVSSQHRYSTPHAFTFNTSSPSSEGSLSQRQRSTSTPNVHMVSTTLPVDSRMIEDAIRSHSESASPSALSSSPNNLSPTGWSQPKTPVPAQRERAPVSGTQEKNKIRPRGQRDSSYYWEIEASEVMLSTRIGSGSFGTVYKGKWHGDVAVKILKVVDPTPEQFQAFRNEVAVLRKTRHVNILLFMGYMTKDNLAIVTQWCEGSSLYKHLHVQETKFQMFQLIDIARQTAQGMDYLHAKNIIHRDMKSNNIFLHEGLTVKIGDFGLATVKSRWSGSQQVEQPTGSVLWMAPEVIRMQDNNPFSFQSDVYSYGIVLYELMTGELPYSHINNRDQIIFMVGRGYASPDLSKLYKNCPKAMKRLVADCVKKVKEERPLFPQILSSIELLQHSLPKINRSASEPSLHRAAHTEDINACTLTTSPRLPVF
Chain of RAF kinases (Homo sapiens, UniProt P15056) (P15056 whole entry): as the sequence (P15056 whole entry V600E) above, with E600V counted along it

Turning to `COc1cc2ncnc(Sc3cccc(NC(=O)Nc4cc(C(F)(F)F)nn4-c4ccc(F)cc4)c3)c2cc1OC` [Ex 198, 1-[3-(6,7-dimethoxyquinazolin-4-ylthio)phenyl]-3-[1-(4-fluorophenyl)-3-(trifluoromethyl)-1H-pyrazol-5-yl]urea], the IC50 in assay [1] was in the range of 250 to 500 nM. For the same compound, the EC50 in assay [2] fell in the range of 500 to 1000 nM. In assay [3], this compound returned a Kd of 500 to 1000 nM.
As for `COCCOc1cc2ncnc(Oc3cccc(NC(=O)Nc4cc(C(=O)N5CCOCC5)cc(C(F)(F)F)c4)c3)c2cc1OC` [Ex 205, 1-(3-(6-methoxy-7-(2-methoxyethoxy)quinazolin-4-yloxy)phenyl)-3-(3-(morpholine-4-carbonyl)-5-(trifluoromethyl)phenyl)urea], the half-maximal inhibitory concentration (IC50) in assay [1] was more than 1000 nM. For the same compound, the EC50 in assay [2] was more than 1000 nM. In assay [3], this compound displayed an equilibrium dissociation constant (Kd) of 250 to 500 nM.
As for `COc1cc2ncnc(Sc3cccc(NC(=O)Nc4cc(C(F)(F)F)nn4-c4ccccc4)c3)c2cc1OC` [Ex 192, 1-[3-(6,7-dimethoxyquinazolin-4-ylthio)phenyl]-3-[1-phenyl-3-(trifluoromethyl)-1H-pyrazol-5-yl]urea], the IC50 in assay [1] was less than 250 nM. Besides, the concentration for a half-maximal effect (EC50) in assay [2] lay within 250 to 500 nM. Moreover, in assay [3], the dissociation constant Kd lay in the range of 500 to 1000 nM.
For `COCCOc1cc2ncnc(Oc3cccc(NC(=O)Nc4cc(C(C)C)no4)c3)c2cc1OC` [Ex 215, 1-(3-isopropylisoxazol-5-yl)-3-(3-(6-methoxy-7-(2-methoxyethoxy)quinazolin-4-yloxy)phenyl)urea], the Kd in assay [4] was less than 250 nM; in assay [5] it was 250 to 500 nM; in assay [6] it was 250 to 500 nM. Also, in assay [1], the concentration for half-maximal inhibition (IC50) was 500 to 1000 nM. The EC50 in assay [2] was more than 1000 nM.
In the case of `CCOc1cc2ncnc(Sc3cccc(NC(=O)Nc4cc(C(C)(C)C)on4)c3)c2cc1OCC` [Ex 51, 1-(5-tert-butylisoxazol-3-yl)-3-[3-(6,7-diethoxyquinazolin-4-ylthio)phenyl]urea], the half-inhibitory concentration (IC50) in assay [1] lay in the range of 250 to 500 nM. Also, the half-maximal effective concentration (EC50) in assay [2] is more than 1000 nM. In assay [3], the dissociation constant Kd was in the range of 500 to 1000 nM.
For `CCOC(=O)Cn1nc(C(C)(C)C)cc1NC(=O)Nc1cccc(Sc2ncnc3cc(OC)c(OC)cc23)c1` [Ex 195, ethyl 2-(3-tert-butyl-5-{3-[3-(6,7-dimethoxyquinazolin-4-ylthio)phenyl]ureido}-1H-pyrazol-1-yl)acetate], in that order: 250 to 500 nM, more than 1000 nM and 250 to 500 nM.
Taken in the same sequence, the figures for `CCOC(C)(C)c1cc(NC(=O)Nc2cccc(Oc3ncnc4cc(OCCOC)c(OC)cc34)c2)n(-c2ccccc2)n1` [Ex 212, 1-[3-(2-ethoxypropan-2-yl)-1-phenyl-1H-pyrazol-5-yl]-3-{3-[6-methoxy-7-(2-methoxyethoxy)quinazolin-4-yloxy]phenyl}urea] were 500 to 1000 nM, more than 1000 nM and 250 to 500 nM.
As for `CCOc1cc2ncnc(Oc3cccc(NC(=O)Nc4cc(C(C)(C)C)on4)c3)c2cc1OCC` [Ex 13, 1-(5-tert-butylisoxazol-3-yl)-3-[3-(6,7-diethoxyquinazolin-4-yloxy)phenyl]urea hydrochloride], the IC50 in assay [1] fell in the range of 250 to 500 nM. Further, the concentration giving a half-maximal response (EC50) in assay [2] lay within 500 to 1000 nM. Also, the Kd in assay [3] was in the range of 250 to 500 nM.
Regarding `COc1cc2c(Oc3cccc(NC(=O)Nc4cc(C(C)(C)C)on4)c3)ncnc2cc1O[C@H]1CCN(CC(F)F)C1` [Ex 103, (S)-1-(5-tert-butylisoxazol-3-yl)-3-(3-{7-[1-(2,2-difluoroethyl)pyrrolidin-3-yloxy]-6-methoxyquinazolin-4-yloxy}phenyl)urea], the IC50 in assay [1] lay in the range of 500 to 1000 nM. In assay [2], the EC50 was more than 1000 nM. The compound also gave a Kd in assay [3] of 250 to 500 nM.
Taken in the same sequence, the figures for `COc1cc2ncnc(Oc3cccc(NC(=O)Nc4cc(C(F)(F)F)nn4-c4ccc(C)cc4)c3)c2cc1OC` [Ex 172, 1-[3-(6,7-dimethoxyquinazolin-4-yloxy)phenyl]-3-[1-p-tolyl-3-(trifluoromethyl)-1H-pyrazol-5-yl]urea] were less than 250 nM, less than 250 nM and 500 to 1000 nM.
For `COCC(C)(C)c1cc(NC(=O)Nc2cccc(Oc3ncnc4cc(OC)c(OC)cc34)c2)no1` [Ex 130, 1-(3-(6,7-dimethoxyquinazolin-4-yloxy)phenyl)-3-(5-(1-methoxy-2-methylpropan-2-yl)isoxazol-3-yl)urea], in that order: 250 to 500 nM, more than 1000 nM and 250 to 500 nM.
In the case of `CCOC(=O)Cn1nc(C(C)(C)C)cc1NC(=O)Nc1cccc(Oc2ncnc3cc(OC)c(OC)cc23)c1` [Ex 166, ethyl 2-(3-tert-butyl-5-{3-[3-(6,7-dimethoxyquinazolin-4-yloxy)phenyl]ureido}-1H-pyrazol-1-yl)acetate], the IC50 in assay [1] was 500 to 1000 nM. Moreover, in assay [2], the concentration for a half-maximal effect (EC50) is more than 1000 nM. Further, in assay [3], the Kd was in the range of 250 to 500 nM.
Taken in the same sequence, the figures for `CCOC(C)(C)c1cc(NC(=O)Nc2cccc(Sc3ncnc4cc(OCCOC)c(OC)cc34)c2)n(-c2ccccc2)n1` [Ex 241, 1-[3-(2-ethoxypropan-2-yl)-1-phenyl-1H-pyrazol-5-yl]-3-{3-[6-methoxy-7-(2-methoxyethoxy)quinazolin-4-ylthio]phenyl}urea] were 500 to 1000 nM, more than 1000 nM and 250 to 500 nM.
For `COc1cc2ncnc(Oc3cccc(NC(=O)Nc4cc(C(C)(C)C)nn4-c4cnccc4C)c3)c2cc1OC` [Ex 303, 1-(3-tert-butyl-1-(4-methylpyridin-3-yl)-1H-pyrazol-5-yl)-3-(3-(6,7-dimethoxyquinazolin-4-yloxy)phenyl)urea], the dissociation constant Kd in assay [4] was less than 250 nM; in assay [5] it was 250 to 500 nM; in assay [6] it was 500 to 1000 nM. In addition, the IC50 in assay [1] was less than 250 nM. Moreover, the half-maximal effective concentration (EC50) in assay [2] was less than 250 nM.
For `COCCOc1cc2ncnc(Oc3cccc(NC(=O)Nc4cc(C5CCCC5)no4)c3)c2cc1OC` [Ex 207, 1-(3-cyclopentylisoxazol-5-yl)-3-(3-(6-methoxy-7-(2-methoxyethoxy)quinazolin-4-yloxy)phenyl)urea], the dissociation constant Kd in assay [4] was less than 250 nM; in assay [5] it was 250 to 500 nM; in assay [6] it was 500 to 1000 nM. Moreover, in assay [1], the IC50 was more than 1000 nM. In addition, the EC50 in assay [2] was more than 1000 nM.
In the case of `COc1ccc(-n2nc(C(C)(C)C)cc2NC(=O)Nc2cccc(Oc3ncnc4cc(OC)c(OC)cc34)c2)cc1` [Ex 361, 1-(3-tert-butyl-1-(4-methoxyphenyl)-1H-pyrazol-5-yl)-3-(3-(6,7-dimethoxyquinazolin-4-yloxy)phenyl)urea], the Kd in assay [4] was less than 250 nM; in assay [5], 500 to 1000 nM; in assay [6], 250 to 500 nM. For the same compound, the IC50 in assay [1] was less than 250 nM. Moreover, in assay [2], the 50% effective concentration (EC50) is more than 1000 nM.
Consider `COc1cc2ncnc(Oc3cccc(NC(=O)Nc4cc(C(C)(C)C)nn4-c4ccccc4)c3)c2cc1OC` [Ex 153, 1-(3-tert-butyl-1-phenyl-1H-pyrazol-5-yl)-3-(3-(6,7-dimethoxyquinazolin-4-yloxy)phenyl)urea], for which the half-maximal inhibitory concentration (IC50) in assay [1] was less than 250 nM. The compound further gave a Kd in assay [3] of 500 to 1000 nM.
On to `COCCOc1cc2ncnc(Sc3cccc(NC(=O)Nc4cc(C(C)(C)C)no4)c3)c2cc1OCCOC` [Ex 247, 1-(3-(6,7-bis(2-methoxyethoxy)quinazolin-4-ylthio)phenyl)-3-(3-tert-butylisoxazol-5-yl)urea], for which the values for the dissociation constant Kd in assay [4], in assay [5] and in assay [6] were less than 250 nM, 250 to 500 nM and 250 to 500 nM, respectively. For the same compound, in assay [1], the IC50 is less than 250 nM. The concentration giving a half-maximal response (EC50) in assay [2] was more than 1000 nM.
As to `COCCOc1cc2ncnc(Sc3cccc(NC(=O)Nc4cc(C(C)(CF)CF)on4)c3)c2cc1OC` [Ex 230, 1-[5-(1,3-difluoro-2-methylpropan-2-yl)isoxazol-3-yl]-3-{3-[6-methoxy-7-(2-methoxyethoxy)quinazolin-4-ylthio]phenyl}urea], the equilibrium dissociation constant (Kd) was less than 250 nM in assay [4], 250 to 500 nM in assay [5] and 500 to 1000 nM in assay [6]. Also, in assay [1], the IC50 was less than 250 nM. Also, the EC50 in assay [2] lay within 250 to 500 nM.
Consider `COc1cc2ncnc(Sc3cccc(NC(=O)Nc4ccc(OC)c(C(F)(F)F)c4)c3)c2cc1OCCCN1CCS(=O)(=O)CC1` [Ex 246, 1-(4-methoxy-3-(trifluoromethyl)phenyl)-3-(3-(7-methoxy-6-(3-(4,4-dioxothiomorpholino)propoxy)quinazolin-4-ylthio)phenyl)urea], for which the dissociation constant (Kd) in assay [4] was less than 250 nM; in assay [5], 250 to 500 nM; in assay [6], 250 to 500 nM. The IC50 in assay [1] was less than 250 nM. Moreover, the concentration giving a half-maximal response (EC50) in assay [2] is 500 to 1000 nM.
In the case of `COc1cc2ncnc(Oc3cccc(NC(=O)Nc4cnn(C(C)(C)C)c4)c3)c2cc1OC` [Ex 252, 1-(1-tert-butyl-1H-pyrazol-4-yl)-3-(3-(6,7-dimethoxyquinazolin-4-yloxy)phenyl)urea], the Kd is less than 250 nM in assay [4], 250 to 500 nM in assay [5] and 250 to 500 nM in assay [6]. The half-maximal inhibitory concentration (IC50) in assay [1] is more than 1000 nM. For the same compound, in assay [2], the 50% effective concentration (EC50) was more than 1000 nM.
Turning to `CCOc1cc2ncnc(Oc3cccc(NC(=O)Nc4cc(C(F)(F)F)nn4-c4ccccc4)c3)c2cc1OC` [Example 384, 1-(3-(7-ethoxy-6-methoxyquinazolin-4-yloxy)phenyl)-3-(1-phenyl-3-(trifluoromethyl)-1H-pyrazol-5-yl)urea], the Kd is less than 250 nM in assay [4], 250 to 500 nM in assay [5] and 500 to 1000 nM in assay [6]. In addition, in assay [1], the half-inhibitory concentration (IC50) was 500 to 1000 nM. In addition, the EC50 in assay [2] fell in the range of 250 to 500 nM.
With `COc1cc2ncnc(Oc3cccc(NC(=O)Nc4cc(C(F)(F)F)nn4-c4ccccc4)c3C)c2cc1OC` [Ex 291, 1-(3-(6,7-Dimethoxyquinazolin-4-yloxy)-2-methylphenyl)-3-(1-phenyl-3-(trifluoromethyl)-1H-pyrazol-5-yl)urea], the dissociation constant (Kd) in assay [4] was less than 250 nM; in assay [5], 250 to 500 nM; in assay [6], 500 to 1000 nM. Also, the IC50 in assay [1] was in the range of 500 to 1000 nM. Further, the EC50 in assay [2] is more than 1000 nM.

What is called IC50 is the concentration needed to halve the response being measured. The EC50 is the midpoint of the concentration-response curve. For orientation: Kd means the equilibrium constant for the complex coming apart.
